From a melting point compilation (Tetko et al.; mined from patent text by program, amines drawn as free bases though some values may be those of a salt) come the findings set out here.

Where only a bound is given, the exact number is not on record here.

The compound `COC(=O)C1CSC(c2ccc(Oc3ccc(C)cc3O)cc2)N1` (stereo unspecified) had a melting point of 134 to 135 °C.

The compound `CC(C)NC(=O)N1CCC(O[N+](=O)[O-])CC1` registered a melting point of 93 to 95 °C. `CCOC(=O)c1c(Cn2cnnc2)nc2cc(OC)c(OC)cc2c1-c1ccc(OC)cc1`: the melting point fell in the range of 218 to 219 °C. Under `C1=CC(n2c(-c3ccc4c(c3)OCO4)nc3ccccc32)CCC1` (stereo unspecified) stands 119 to 120 °C; under `CCC(O)(CC)CC1NC(=O)c2ccccc21` (stereo unspecified), 130 to 132 °C.

`CC(=O)C(=Cc1ccc(O)cc1)C(C)=O` had a melting point of 123 to 127 °C.

In turn, `ON=CC12CCCN(CCC1)C2` showed a melting point of 115 to 117 °C. With `CN(C)C(=O)Nc1coc2ccccc2c1=S`, the melting point came out at 108 °C. Compound `CCOC(=O)[C@H](Cc1ccc(O)cc1)NC(=O)OC(C)(C)C` yielded a melting point of 87 to 88 °C. In turn, `Nc1c(C(=O)c2cc(Cl)ccc2[N+](=O)[O-])[nH]c2cc(Cl)ccc12` gave a melting point of 233 to 234 °C. With `COc1ccc([C@@H]2Cc3c(cccc3C(F)(F)F)N(CC3=NCCN3C(=O)OC(C)(C)C)C(=O)[C@@H]2O)cc1`, the melting point worked out at 116 °C. In the case of `Oc1ccc2sc(-c3ccc(OCCN4CCCC4)cc3)c(Cc3ccc(OC4CCCCC4N4CCCCC4)cc3)c2c1` (stereo unspecified), the melting point was 103 to 106 °C. Compound `CN1CCC(OC(c2cccc(SCCNC(N)=O)c2)c2nc3ccccc3[nH]2)CC1` (stereo unspecified) came in with a melting point of 136 °C. Under `Cc1nc(C)c(Cl)c(NCc2nccc(SCCCSc3ncccn3)c2C)n1` stands 158 to 159 °C. Take `CCNC1CN(c2cc3c(cc2F)c(=O)c(C(=O)O)cn3C2CC2)C1`: the melting point fell in the range of 220 to 224 °C. `COc1cc2c3ccc(OC)c(OC)c3n(C(=O)c3ccccc3)c2cc1OC` came in with a melting point of 184 to 185 °C. As for `COc1ccc(S(=O)(=O)N2c3cc(Br)sc3-c3ccccc3[C@H]2C)cc1`, the melting point is 136 to 138 °C. As for `O=C(O)c1cccc2c1Cc1c-2[nH]c2ccc(Cl)cc12`, the figure is over 300 °C; as for `CCOC(=O)COc1cccc2oc(-c3ccccc3)cc(=O)c12`, 89.5 to 90.5 °C; as for `CCOP(=S)(OCC)ON=C1C=CC(=C(C#N)c2ccccc2)C=C1`, 66 to 82 °C.

`COc1ccc2c(c1)c(CN(O)C(=O)CCC(=O)O)c(C)n2C(=O)c1ccc(Cl)cc1` returned a melting point of 134 to 136 °C. On to `O=C(CCCl)Nc1ccc(F)c(Cl)c1`, for which the melting point came out at 94 °C. `NC(=O)c1nc(-c2cccc(O)c2)nc2c1[nH]c(=O)n2-c1ccccc1Cl`: the melting point lay within 360 to 364 °C. As for `CC1(C)OC(=S)Nc2ccc(-c3cccc(CC#N)n3)cc21`, the figure is 215 to 217 °C; as for `Cc1nn(-c2cccnc2)cc1NC1CC1`, 104 to 107 °C; as for `CCCCCCCCCCCCCCN(c1ccccc1)c1snnc1C(N)=O`, 79 to 81 °C.

On to `CON(C)C(=O)c1ccc2nc(Cl)nc(-c3cccc(Cl)c3)c2c1`, for which the melting point stood at 110 °C. Under `COc1ccc2c(c1)c(Cc1cc(=O)n(C3CCCC3)[nH]1)c(C)n2C(=O)c1ccc(Cl)cc1` stands 153 to 155 °C. For `C[C@@H](NC(=O)c1c[nH]c2ncc(-c3nn(C)c4cc(F)cc(F)c34)nc12)C(=O)N1CC(C#N)C1`, the melting point lay within 235 to 265 °C.

On to `COc1ccccc1C1(O)C(O)CC(C)(C)C2CN(Cc3ccccc3)CC21` (stereo unspecified), for which the melting point was 190 °C. As for `O=C(C(=O)c1cccc(C#Cc2ccccc2)c1)c1cccc(C#Cc2ccccc2)c1`, the melting point lay within 144 to 145 °C. For `COc1ccc(OC)c2c1C[C@](O)(CC#N)CC21SCCS1`, the melting point lay in the range of 173 to 174 °C. On to `CCN1c2ncccc2C(=O)Nc2c(C)cc(-n3ccnc3)nc21`, for which the melting point is 243 to 245 °C. In the case of `CC[C@@H]1O[C@](/C=C/C2CC2)(C(F)(F)F)c2cc(Cl)ccc2NC1=O` (relative stereo), the melting point lay within 147 to 148 °C. Under `CCCCCC/C(=C\c1ccccc1)C1O[C@@H](C(=O)OC)[C@H](C(=O)OC)O1` stands 49 to 50 °C; under `CC(c1oc2ccccc2c(=O)c1-c1cccc(F)c1)n1nc(-c2csc(C=O)c2)c2c(N)ncnc21` (stereo unspecified), 192 to 195 °C. As for `CCOC(=O)c1cc2ccc(Cl)cc2n1C`, the melting point was in the range of 75.5 to 76.5 °C. As for `O=c1[nH]c(=O)n2c3c(cccc13)S(=O)c1ccc(C(F)(F)F)cc1-2` (stereo unspecified), the figure is 302 to 304 °C; as for `NC(=Nc1ccc(N2CCNCC2)cc1)c1cccs1`, 180 °C; as for `O=C(CCCN1CCOCC1)c1ccc2c(c1)Cc1cc(C(=O)CCCN3CCOCC3)ccc1S2`, 90.5 to 91.5 °C. `O=C(CCCCCOc1ccccc1)c1ccccc1` yielded a melting point of 53.5 to 54.5 °C. For `O=C(C=Cc1ccc(Br)cc1)N1CCc2c([nH]c3ccccc23)C1c1ccc2c(c1)OCO2` (stereo unspecified), the melting point was in the range of 188 to 190 °C. As to `CCc1nn(Cc2cccnn2)c2c(=O)[nH]c(-c3cc(S(C)(=O)=O)ccc3OCC(C)C)nc12`, the melting point was 231 to 234 °C. `O=c1[nH]c2ncc(-c3ccc4[nH]cnc4c3)nc2n1CC1CCCCC1` showed a melting point of 217 to 220 °C. `Cc1cc(-c2cc(C(F)(F)F)nc(-c3ccnc(-c4cccc(S(N)(=O)=O)c4)c3)n2)ccc1Cl`: the melting point was found to be 234 °C. As for `Cc1nc(NC(=O)c2cnn3c(C(F)(F)F)cc(-c4ccc(Cl)c(Cl)c4)nc23)sc1S(=O)(=O)NC(C)(C)CO`, the figure is 265 °C; as for `COCOc1c(OC)cc(C=CC(=O)c2c(OC)cc(OC)c(CC=C(C)C)c2O)cc1OC`, 128 to 129 °C; as for `CCCOc1ccc(C(=O)CN2CCOCC2)cc1-c1nc2c(CCC)nn(C)c2c(=O)[nH]1`, 128 to 129 °C. `CCCCN(CCCC)CCOc1ccc(C(=O)c2c(CC)cc3ccccn23)cc1` gave a melting point of 116 °C. In turn, `BrCCOc1ccsc1` yielded a melting point of 46 °C.

With `Nc1c(Cl)cc(Nc2ncnc3cnc(N[C@H]4CC[C@H](C(=O)O)CC4)nc23)cc1Cl`, the melting point was 339 °C. Under `CC(C)(C)c1ccc(-c2nnc(-c3ccc(C(=O)O)cc3[N+](=O)[O-])o2)cc1` stands 233 to 235 °C; under `CC1=CC(OC(=O)c2ccc(N)c(N)c2)C(O)C(C)(C)CC1=O` (stereo unspecified), 136 to 137 °C; under `O=C(NC1C2CC3CC(C2)CC1C3)C1CCCCN1Cc1ccccn1` (stereo unspecified), 126 to 127 °C.

In turn, `N#Cc1ccc(S(=O)(=O)Nc2cccnc2Nc2ccccc2)cc1` returned a melting point of 155 to 157 °C. Take `CCOCc1cc2cccc(OC)c2oc1=O`: the melting point was 131 to 133 °C.

As for `Cc1nc2ncnn2c(Cl)c1CCCl`, the melting point was in the range of 81 to 82 °C. Turning to `COc1cccc2nc(-c3ccc(OCCNC(C)C)c(-c4ccc(S(C)(=O)=O)cc4)n3)[nH]c(=O)c12`, the melting point fell in the range of 222 to 223 °C. Compound `COc1ccc(CN2C(=O)CN(Cc3ccc(C(=O)O)cc3)S2(=O)=O)c(OC)c1` registered a melting point of 175 to 177 °C. Compound `CC(=O)N1CCc2c1cc(C)c(S(=O)(=O)C[N+](=O)[O-])c2C` registered a melting point of 204 °C. `OCC1OC(n2cnc3c(-n4cccc4)ncnc32)C(O)C1O` (stereo unspecified) yielded a melting point of 114 to 115 °C. On to `CCn1nc(OCCCc2ccc(OC(C)C)cc2OCc2ccc(Cl)cc2Cl)cc1CCC(=O)O`, for which the melting point was in the range of 110 to 111 °C.

In turn, `COc1cc(C(=O)O)ccc1OCc1cccc(OCc2ccc3ccccc3n2)c1` came in with a melting point of 188 to 190 °C. As for `FC(F)(F)CSC1(c2cccc(OCc3ccc4ccccc4c3)c2)CCOCC1`, the figure is 76 to 78 °C; as for `CCOC(=O)c1ncn2c1CN=C(c1ccccc1F)c1cc(Br)ccc1-2`, 200 to 202 °C; as for `COC(=O)C(C)(C(=O)O)N1C(=O)CCC(N2C(=O)c3ccccc3C2=O)C1=O` (stereo unspecified), 143 to 146 °C. Under `Cc1c(-c2nnn[nH]2)oc2c(c1=O)CS(=O)(=O)c1ccccc1-2` stands 268 to 270 °C; under `CCCCCC(CC(=O)Nc1cc(C(N)=O)ccc1C(C)(C)C)c1ccc(OCCC(N)S(C)(=O)=O)cc1OC` (stereo unspecified), 77 to 79 °C. As for `O=[N+]([O-])c1cccc(F)c1CCO`, the melting point lay within 42 to 44 °C.

As to `COc1ccc(C2CCN(C(=O)/C(=N/O)C(N)=O)CC2)cc1OC1CCCC1`, the melting point fell in the range of 109 to 111 °C. Compound `COCC(F)Cn1ccnc1[N+](=O)[O-]` (stereo unspecified) showed a melting point of 39 to 44 °C.

`O=S1(=O)CCN2CCCC(c3ccc(C(F)(F)F)cc3)C2=N1` (stereo unspecified) registered a melting point of 226 to 227 °C. The compound `CC(C)CNc1c2c(nc3cn[nH]c13)CCCC2` returned a melting point of 124 to 127 °C.

`Cc1c(NC(=O)c2ccc(OCCCC(F)(F)F)cc2F)ccc2cc(CN3CCCC3)cnc12`: the melting point was determined as 148 °C. As for `C=CCOc1ccc2c(=O)c(C)c(-c3ccccc3)oc2c1C(=O)C=Cc1cccc(OC)c1`, the figure is 90 to 92 °C. On to `COc1ccc(C2=NN(c3ccc(-c4nnn(Cc5ccccc5)n4)cc3)C(=O)[C@H]3CC=CC[C@@H]23)cc1OC` (relative stereo), for which the melting point lay in the range of 100 to 102 °C.

As for `CCCCCCCCOc1ccc(-c2cnc(C(=O)O)c(C(=O)O)n2)cc1`, the melting point was 163 °C. As to `Oc1ccc(-c2nc(-c3ccc(Br)cc3)nc(-c3ccc(O)cc3O)n2)c(O)c1`, the melting point is 222 to 224 °C. The compound `CC(=O)Cc1ccc(NC(=O)/C=C/c2cnn(C)c2-c2ccc(F)cc2)cc1` had a melting point of 186 to 187 °C. Regarding `Cn1ccc2c(NC(=O)c3ccccc3)cccc21`, the melting point was determined as 160 °C. In turn, `O=C(CCl)N1CC=C(c2cccc(C(F)(F)F)c2)n2ncc(Cl)c21` showed a melting point of 116 to 119 °C.

Compound `COc1cccc2c1C(CN1CC=C(c3c[nH]c4cc(Cl)ccc34)CC1)CC2` (stereo unspecified) had a melting point of 177 to 178 °C. In turn, `CCCc1cc(NC(=O)c2c(C)nn(C)c2C)c(C)c(-c2cc(CCC)c(C(C(F)(F)F)C(F)(F)F)cc2C)c1` came in with a melting point of 128 to 131 °C. `NC(=O)c1cc(-n2c(-c3ccccc3)cc3c2CCc2ccccc2-3)ccc1O` came in with a melting point of 213 to 215 °C. `O=Cc1ccc(I)nc1` yielded a melting point of 141 °C. In the case of `N#Cc1ccc2c(c1)Sc1ccccc1CC2`, the melting point lay within 145 to 147 °C.
